# Source: article PMC10545790
# Values joined by “and” are separate entries in the source; they are usually repeats but may differ in a detail not shown here. Equal entries are not always repeated.
# Test system: human hepatocellular carcinoma cells HepG2
# Experiment: High Content Imaging of HepG2 cells: nuclei count, necrosis (PI), apoptosis (caspase 3/7)
# Assay type: cell-based
# Set-up: Nuclei Area wv1 / Mean nuclei area: unit not given here
# Conditions: for Mean nuclei intensity: Hoechst 33342; for All Targets.PI negative.casp positive (%) / All Targets.PI positive (%) / Nuclei Area wv1 / Nuclei Intensity wv1: single well; for Nuclei Count wv1: single well (concentration from plate map the 5th table)
# Protocol: proliferation and cell death mechanisms, using High Content Imaging assay. The following parameters were assessed: nuclei count to measure inhibiting of the proliferation; cell membrane permeability to assess general cytotoxicity and necrosis; caspase activation to test apoptosis. […]
# Human hepatocellular carcinoma HepG2 cell line was used to test biological action of Vorinostat and its analogues. Cell line was obtained from Leibniz Institute DSMZ - German Collection of Microorganisms and Cell Cultures. Cells were cultured in DMEM medium (Hyclone, Cat# SH30003.04) supplemented with 10% fetal bovine serum (Sigma-Aldrich, Cat# F7524), 100 units/mL penicillin and 100 μg/mL streptomycin (Sigma-Aldrich, Cat# P4333).
# Before plating, the cells were first washed with PBS and then trypsinized with 0.01% trypsin solution (Sigma-Aldrich, Cat# T4174) in DPBS. The appropriate volume of culture medium was placed in a flask to stop further trypsinization, then the cells were centrifugated at 200 x g for 4 min, resuspended in fresh complete medium and counted using a counting chamber after being stained with Trypan Blue. […]
# μL total volume per well and incubated at 37 °C/5%CO2/95%RH overnight. Vorinostat and test compounds were dissolved in 100% DMSO at a concentration of 10 mM and stored at -20 °C as single-use aliquots. Next day 20 μL of medium with compounds was added to the cells to the final DMSO concentration […]. Treatment for 48 hours was performed under growth conditions.
# Compounds were assessed at the final concentrations 1, 5 and 50 μM (each in triplicates - 3 wells, 9 fields of view per well). Staining for nuclei, apoptotic cells with activated caspase 3/7 and dead […]
# cells with permeabilized membrane was performed for 30 min under growth conditions in staining […]
# 3/7 Detection Reagent (Invitrogen, Cat# C10423) and 1 μM Propidium Iodide (Invitrogen, Cat# P3566) in medium complete. The cells were imaged with InCell Analyzer 6500, 20x obj. Image […]
# Data were analyzed in GraphPad Prism 9.
# Supplementary Fig. 16. Workflow of multiplexed cells staining.
# Multiplexed staining allows to test cell toxicity and distinguish between necrosis and apoptosis within one single experiment (Supplementary Fig. 16).
# CellEvent Caspase-3/7 Green Detection Reagent labels cells with activated caspases. Propidium Iodide (PI) labels dead cells with permeabilized membrane. Hoechst-positive cells were counted to assess the % of cell toxicity. PI-positive cells are dead – this is a fraction of necrotic and late apoptotic cells, used for assessing of cytotoxicity/necrosis. Early apoptotic cells are caspase-positive, PI-negative because their membrane isn’t compromised yet. Percentages of cells of certain […]
# background and comparing with overall number of cells.
# [1] = HepG2, 48 h, 1 uM, mean of 3 wells
# [2] = HepG2, 48 h, 5 uM, mean of 3 wells
# [3] = HepG2, 48 h, 50 uM, mean of 3 wells
smiles,measurement,setting,value
O=C(CCCCCCC(=O)NC12CCC(CC1)OC2)NO [Compound 88],Mean nuclei area,"HepG2, 48 h, 1 uM",117.1
same,Mean nuclei intensity,"HepG2, 48 h, 1 uM",2764.0 RFU
same,"% of early apoptotic cells (PI negative, caspase positive)",[1],0.344%
same,% of necrotic and late apoptotic cells (PI positive),[1],0.9%
same,All Targets.PI negative.casp positive (%),"HepG2, 48 h, 1 uM",0.2791% and 0.3975% and 0.3542%
same,All Targets.PI positive (%),"HepG2, 48 h, 1 uM",1.031% and 0.9564% and 0.6961%
same,Nuclei Area wv1,"HepG2, 48 h, 1 uM",117.054 and 118.289 and 116.039
same,Nuclei Intensity wv1,"HepG2, 48 h, 1 uM",2311.93 and 2195.12 and 3784.44
same,Nuclei Count wv1,"HepG2, 48 h, 1 uM",8241 and 8051 and 8188
same,Mean nuclei area,"HepG2, 48 h, 5 uM",118.3
same,Mean nuclei intensity,"HepG2, 48 h, 5 uM",3381.0 RFU
same,"% of early apoptotic cells (PI negative, caspase positive)",[2],0.463%
same,% of necrotic and late apoptotic cells (PI positive),[2],0.8%
same,All Targets.PI negative.casp positive (%),"HepG2, 48 h, 5 uM",0.548% and 0.4031% and 0.4377%
same,All Targets.PI positive (%),"HepG2, 48 h, 5 uM",0.8821% and 0.8306% and 0.721%
same,Nuclei Area wv1,"HepG2, 48 h, 5 uM",119.866 and 117.043 and 117.864
same,Nuclei Intensity wv1,"HepG2, 48 h, 5 uM",3478.61 and 2783.26 and 3882.1
same,Nuclei Count wv1,"HepG2, 48 h, 5 uM",7482 and 8187 and 7767
same,Mean nuclei area,"HepG2, 48 h, 50 uM",129.6
same,Mean nuclei intensity,"HepG2, 48 h, 50 uM",3968.0 RFU
same,"% of early apoptotic cells (PI negative, caspase positive)",[3],12.0%
same,% of necrotic and late apoptotic cells (PI positive); cell toxicity level,[3],18% and 18.5%
same,inhibition of cell proliferation (in words),"HepG2, 48 h, 50 μM, nuclei count",inhibited cell proliferation at 50 μM concentration to the same level as Vorinostat
same,All Targets.PI negative.casp positive (%),"HepG2, 48 h, 50 uM",11.5569% and 11.4167% and 12.9144%
same,All Targets.PI positive (%),"HepG2, 48 h, 50 uM",19.3713% and 17.5096% and 18.5033%
same,Nuclei Area wv1,"HepG2, 48 h, 50 uM",130.383 and 125.337 and 133.198
same,Nuclei Intensity wv1,"HepG2, 48 h, 50 uM",4177.18 and 3221.5 and 4506.24
same,Nuclei Count wv1,"HepG2, 48 h, 50 uM",3340 and 3381 and 3167
same,effect on HepG2 cell death / apoptosis compared with Vorinostat (in words),"HepG2, 48 h, 1, 5 and 50 μM",active
same,cytotoxic effects (in words),"HepG2, 48 h, 1 and 5 μM",did not demonstrate any significant cytotoxic effects
same,effect on cell proliferation (in words),"HepG2, 48 h, 1 and 5 μM",did not have any significant effects
